Earlier results on four compounds are cited in PMC11053612, “Membrane-Fusing Vehicles for Re-Sensitizing Transporter-Mediated Multiple-Drug Resistance in Cancer” (Pharmaceutics, 2024).

Conditions in all cases: ref [23],[24],[25],[26]
For one data set, the target named is T1, ABCB1 (Homo sapiens, UniProt P08183).
T1 construct: expressed in transfected cells; host or cells: MDCK II MDR1 (canine kidney MDCK II, transfected; gift of Dr. A. Schinkel, Netherlands Cancer Institute)
More on the design: method as in PMID 23470221, PMID 7999426, PMID 11309820, PMID 14973080; key: +: whether they are actively transported or not.

In another data set the target is T2, ABCC1 (Homo sapiens, UniProt P33527).
T2 construct: expressed in transfected cells; host or cells: MDCK II MRP1 (canine kidney MDCK II, transfected; gift of Dr. A. Schinkel, Netherlands Cancer Institute)
T2 sequence (P33527 whole entry): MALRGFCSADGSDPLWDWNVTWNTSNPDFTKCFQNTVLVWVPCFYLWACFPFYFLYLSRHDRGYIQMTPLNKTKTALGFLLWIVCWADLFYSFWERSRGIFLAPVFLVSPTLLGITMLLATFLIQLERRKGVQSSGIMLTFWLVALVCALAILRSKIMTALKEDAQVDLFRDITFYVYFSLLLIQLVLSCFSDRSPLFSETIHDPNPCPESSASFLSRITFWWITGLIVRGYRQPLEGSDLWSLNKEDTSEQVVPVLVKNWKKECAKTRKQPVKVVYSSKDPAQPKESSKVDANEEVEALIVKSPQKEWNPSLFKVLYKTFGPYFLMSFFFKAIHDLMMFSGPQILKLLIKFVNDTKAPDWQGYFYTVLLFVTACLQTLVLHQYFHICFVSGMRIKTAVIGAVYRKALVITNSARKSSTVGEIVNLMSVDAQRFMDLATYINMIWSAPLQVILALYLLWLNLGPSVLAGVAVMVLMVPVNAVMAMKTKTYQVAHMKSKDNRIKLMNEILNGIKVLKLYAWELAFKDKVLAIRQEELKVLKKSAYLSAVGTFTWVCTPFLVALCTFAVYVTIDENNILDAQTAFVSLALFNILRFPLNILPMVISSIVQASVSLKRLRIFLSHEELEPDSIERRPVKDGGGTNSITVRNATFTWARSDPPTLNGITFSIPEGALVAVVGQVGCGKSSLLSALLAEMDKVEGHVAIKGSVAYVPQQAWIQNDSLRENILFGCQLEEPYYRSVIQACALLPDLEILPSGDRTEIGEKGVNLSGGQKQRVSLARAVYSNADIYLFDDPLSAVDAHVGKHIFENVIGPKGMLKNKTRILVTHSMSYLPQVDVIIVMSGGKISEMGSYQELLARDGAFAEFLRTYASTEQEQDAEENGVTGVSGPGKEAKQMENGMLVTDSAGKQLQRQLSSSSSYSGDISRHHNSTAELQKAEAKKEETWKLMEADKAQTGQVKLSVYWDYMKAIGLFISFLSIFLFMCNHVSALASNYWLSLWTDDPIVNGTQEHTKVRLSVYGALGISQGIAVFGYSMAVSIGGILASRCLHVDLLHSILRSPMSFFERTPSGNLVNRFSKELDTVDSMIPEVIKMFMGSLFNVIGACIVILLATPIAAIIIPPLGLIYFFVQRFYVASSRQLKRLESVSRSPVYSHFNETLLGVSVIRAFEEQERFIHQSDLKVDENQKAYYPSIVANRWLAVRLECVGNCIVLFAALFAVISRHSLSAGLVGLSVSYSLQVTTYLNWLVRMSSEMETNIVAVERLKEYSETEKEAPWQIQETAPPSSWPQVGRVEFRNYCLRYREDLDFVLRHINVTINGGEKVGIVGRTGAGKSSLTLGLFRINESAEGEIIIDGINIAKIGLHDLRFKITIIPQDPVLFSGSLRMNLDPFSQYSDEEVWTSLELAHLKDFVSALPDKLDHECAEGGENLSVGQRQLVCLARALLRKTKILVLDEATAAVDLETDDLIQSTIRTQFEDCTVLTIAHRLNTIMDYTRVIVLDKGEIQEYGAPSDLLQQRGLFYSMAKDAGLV
More on the design: method as in PMID 23470221, PMID 7999426, PMID 11309820, PMID 14973080; key: +: whether they are actively transported or not; −: whether they are actively transported or not.

The subject of the next data set is ABCG2. Also on record: method as in PMID 23470221, PMID 7999426, PMID 11309820, PMID 14973080; key: +: whether they are actively transported or not; −: whether they are actively transported or not.

T1 sequence (P08183 whole entry): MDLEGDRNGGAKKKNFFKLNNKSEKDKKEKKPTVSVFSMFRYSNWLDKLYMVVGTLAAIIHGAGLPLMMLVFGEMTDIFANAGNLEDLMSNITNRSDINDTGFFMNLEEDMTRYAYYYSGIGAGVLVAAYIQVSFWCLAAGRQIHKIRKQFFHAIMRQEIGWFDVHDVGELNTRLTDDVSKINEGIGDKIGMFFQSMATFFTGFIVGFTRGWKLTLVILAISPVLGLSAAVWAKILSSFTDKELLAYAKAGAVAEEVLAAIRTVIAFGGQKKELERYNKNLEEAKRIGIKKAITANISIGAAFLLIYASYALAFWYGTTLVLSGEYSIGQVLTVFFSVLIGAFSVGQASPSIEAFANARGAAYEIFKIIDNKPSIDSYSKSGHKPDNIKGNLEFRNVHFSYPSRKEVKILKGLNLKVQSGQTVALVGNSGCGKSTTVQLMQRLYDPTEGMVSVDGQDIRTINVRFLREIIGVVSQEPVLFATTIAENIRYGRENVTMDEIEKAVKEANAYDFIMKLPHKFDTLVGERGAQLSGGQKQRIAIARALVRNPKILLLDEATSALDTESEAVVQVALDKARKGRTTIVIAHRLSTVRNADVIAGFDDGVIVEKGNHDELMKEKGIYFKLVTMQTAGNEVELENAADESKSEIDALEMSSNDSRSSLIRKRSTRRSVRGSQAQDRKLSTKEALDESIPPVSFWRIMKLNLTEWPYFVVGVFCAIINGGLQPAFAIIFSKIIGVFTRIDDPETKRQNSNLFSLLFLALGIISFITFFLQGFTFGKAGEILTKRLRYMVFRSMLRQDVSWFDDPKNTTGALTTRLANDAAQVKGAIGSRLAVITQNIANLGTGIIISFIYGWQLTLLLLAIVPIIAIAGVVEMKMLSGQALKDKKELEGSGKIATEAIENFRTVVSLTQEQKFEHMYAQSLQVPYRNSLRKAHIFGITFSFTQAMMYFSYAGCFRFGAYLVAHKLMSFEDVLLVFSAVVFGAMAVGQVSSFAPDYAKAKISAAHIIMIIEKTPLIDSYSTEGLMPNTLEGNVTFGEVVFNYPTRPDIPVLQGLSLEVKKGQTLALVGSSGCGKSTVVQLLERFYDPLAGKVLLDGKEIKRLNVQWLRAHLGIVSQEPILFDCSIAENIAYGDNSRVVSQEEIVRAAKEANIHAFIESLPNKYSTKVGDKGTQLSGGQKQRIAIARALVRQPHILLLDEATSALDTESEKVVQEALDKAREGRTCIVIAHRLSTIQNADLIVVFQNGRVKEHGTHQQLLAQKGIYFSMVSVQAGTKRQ

As for `O=C(O)CN(CC(=O)O)Cc1cc2c(cc1O)Oc1cc(O)c(CN(CC(=O)O)CC(=O)O)cc1C21OC(=O)c2ccccc21` [Calcein], the “actively transported by ABCB1” value at ABCB1 was “+”. For the same compound, on ABCC1, the “actively transported by ABCC1” value is “+”. In addition, the “actively transported by ABCG2” value in the data set on ABCG2 is recorded as “−”.
As for `CCOc1ccc(-c2nc3ccc(-c4nc5ccc(N6CCN(C)CC6)cc5[nH]4)cc3[nH]2)cc1` [Hoechst 33324], on ABCC1, the “actively transported by ABCC1” value is listed as “−”. In addition, in the data set on ABCG2, the “actively transported by ABCG2” value was “+”.
In the case of `C=Cc1c(C)c2cc3nc(c4c5[nH]c(cc6nc(cc1[nH]2)C(C)=C6CC)c(C)c5C(=O)[C@@H]4C(=O)OC)[C@@H](CCC(=O)O)[C@@H]3C` [Pheophorbide A], on ABCC1, the “actively transported by ABCC1” value is given as “−”. Moreover, in the data set with ABCG2, the “actively transported by ABCG2” value is reported as “+”.
In the case of `COC(=O)c1ccccc1-c1c2ccc(=N)cc-2oc2cc(N)ccc12` [Rhodamine 123], the “actively transported by ABCB1” value on ABCB1 is “+”. At ABCC1, the “actively transported by ABCC1” value was “+”. Also, in the data set on ABCG2, the “actively transported by ABCG2” value was “−”.
